This note sets out measurements from the NIST ThermoML archive (doi:10.1016/j.jct.2006.07.014).

For data set [1] the following is noted: Liquid; for mass density: 298.15 K, 101.33 kPa, Vibrating tube method.
The nature of data set [2]: refractive index (Na D-line) (dimensionless). The settings on record: 298.15 K; 101.33 kPa; Liquid; Standard Abbe refractometry.

± gives the expanded uncertainty stated by the source.

As for `CC(C)CO` [2-methyl-1-propanol], the mass density in data set [1] stood at 797.8 ± 4.6 kg/m3. In data set [1] (379.45 K), the “vapor or sublimation pressure” value is recorded as 94.83 ± 5 kPa. In data set [2], the refractive index is recorded as 1.3939 ± 0.0012.

For the compound `CC(C)(C)O` [2-methylpropan-2-ol], the mass density in data set [1] is reported as 781.2 ± 4.4 kg/m3. For the same compound, the “vapor or sublimation pressure” value in data set [1] (353.85 K) amounted to 94.83 ± 5 kPa. The refractive index in data set [2] came out at 1.3852 ± 0.0012.

As for `CC#N` [acetonitrile], the mass density in data set [1] is listed as 776.5 ± 4.3 kg/m3. The “vapor or sublimation pressure” value in data set [1] (352.25 K) worked out at 94.83 ± 5 kPa. Moreover, the refractive index in data set [2] was 1.3416 ± 0.0012.

`CCCCO` [butan-1-ol]: the mass density in data set [1] came to 805.8 ± 4.6 kg/m3. Also, the “vapor or sublimation pressure” value in data set [1] (389.15 K) is 94.83 ± 5 kPa. The refractive index in data set [2] worked out at 1.3974 ± 0.0012.

Turning to `CCC(C)O` (stereo not given) [butan-2-ol], the mass density in data set [1] stood at 802.4 ± 4.6 kg/m3. Further, in data set [1] (371.05 K), the “vapor or sublimation pressure” value is 94.83 ± 5 kPa. The refractive index in data set [2] was found to be 1.3953 ± 0.0012.
